In PubChem BioAssay (NCI):
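The compound was tested at five concentrations on cells cultured in 96-well plates, with a 48-hour exposure period. GI50 is the concentration that inhibits growth by half. Definition used: TGI = concentration required for complete inhibition of growth.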

Tests used:
Experiment in all cases: DTP human tumour cell line panel, 48 h
SN12C renal = tested on: SN12C renal
OVCAR-3 ovarian = tested on: OVCAR-3 ovarian
HCC-2998 colon = tested on: HCC-2998 colon
XF 498 CNS = tested on: XF 498 CNS
NCI-H23 lung = tested on: NCI-H23 lung
RXF 393 renal = tested on: RXF 393 renal
HOP-62 NSCLC = tested on: HOP-62 NSCLC
SR leukemia = tested on: SR leukemia
NCI-H522 lung = tested on: NCI-H522 lung
DMS 114 small cell lung = tested on: DMS 114 small cell lung

Compound	TGI (SN12C renal) [µM]	TGI (OVCAR-3 ovarian) [µM]	TGI (HCC-2998 colon) [µM]	TGI (XF 498 CNS) [µM]	TGI (NCI-H23 lung) [µM]	TGI (RXF 393 renal) [µM]	TGI (HOP-62 NSCLC) [µM]	TGI (SR leukemia) [µM]	TGI (NCI-H522 lung) [µM]	TGI (DMS 114 small cell lung) [µM]	GI50 (DMS 114 small cell lung) [µM]	GI50 (SN12C renal) [µM]	GI50 (OVCAR-3 ovarian) [µM]	GI50 (HCC-2998 colon) [µM]	GI50 (XF 498 CNS) [µM]	GI50 (NCI-H23 lung) [µM]	GI50 (HOP-62 NSCLC) [µM]	GI50 (NCI-H522 lung) [µM]	GI50 (RXF 393 renal) [µM]	GI50 (SR leukemia) [µM]
CC(C)(C)c1nc2c(o1)C(=Nc1ccccc1)c1ccccc1C2=O	14.4	6.24	42.6	9.66	5.29	14.7	31	> 100	10.2	–	–	–	–	–	–	–	–	–	–	–
CCOC(C)OCC#CCCBr (stereo unspecified)	> 100	> 100	> 100	–	> 100	> 100	> 100	–	–	> 100	–	–	–	–	–	–	–	–	–	–
[Cu+2].[Cu+2].[O-]c1ccccc1C=Nc1ccccc1[O-].[O-]c1ccccc1C=Nc1ccccc1[O-]	27.3	15.8	22.4	7.16	4.85	–	36.6	–	6.24	5.13	1.96	13.7	5.56	10.3	2.67	1.96	21.9	2.39	–	–
OCC1SC(n2cnc3cncnc32)C(O)C1O (stereo unspecified)	> 100	> 100	> 100	–	> 100	> 100	> 100	> 100	> 100	–	–	> 100	> 100	> 100	–	> 100	> 100	> 100	> 100	> 100
CN(C)CCC1(C2=CCCC2)CC/C(=C\c2ccc3c(c2)OCO3)C1=O (stereo unspecified)	28.8	31.6	29.6	–	33	21.3	–	–	–	32.7	–	–	–	–	–	–	–	–	–	–
COc1nc(OC)c2c(=O)oc(-c3ccccc3)cc2n1	> 100	–	> 100	–	> 100	> 100	–	> 100	> 100	> 100	–	–	–	–	–	–	–	–	–	–
CC(NC(=O)c1ccccc1)C(=O)N(Cc1ccccc1)Cc1ccccc1 (stereo unspecified)	> 100	–	> 100	–	60.4	98.4	66.4	64.6	65.2	53.8	–	–	–	–	–	–	–	–	–	–
Cn1ncc2cc(-c3cnc(N)c(Cl)c3N3CCC4(CCNC4=O)CC3)ccc21	> 100	> 100	> 100	–	> 100	54.3	> 100	57.2	> 100	–	–	32.7	42.9	> 100	–	46.7	21.6	60.7	8.11	6.4
COC(=O)c1cnc2nc(N3CCOCC3)[nH]n2c1=O	> 100	> 100	> 100	–	> 100	> 100	> 100	> 100	> 100	> 100	–	–	–	–	–	–	–	–	–	–
COc1ccc(/C=C2/CN(C(=O)c3ccccc3F)C/C(=C\c3ccc(OC)cc3)C2=O)cc1	10.9	4.95	3.48	–	24.3	3.68	14.6	6.33	15	–	–	2.78	2.3	1.91	–	5.03	3.77	4.2	1.85	0.884
COc1cc(OC)cc(N2CCC(c3c(N)nc(N)nc3Cl)CC2)c1	> 100	> 100	> 100	> 100	> 100	> 100	> 100	–	> 100	–	–	–	–	–	–	–	–	–	–	–
COc1ccc(-c2nc(-c3nc4ccc(F)cc4[nH]3)cc3c2[nH]c2ccccc23)cc1	> 100	5.01	26.2	–	10.9	4.55	74.7	> 100	5.97	–	–	2.97	2.23	3.71	–	3.01	3.22	2	1.72	3.34
O=C(NC1CCCCC1)c1c(O)[nH]c(=S)[nH]c1=O	> 100	> 100	–	–	> 100	–	> 100	> 100	> 100	> 100	–	–	–	–	–	–	–	–	–	–
CN(C)c1c(Cl)c(=O)oc2c1ccc1nc(-c3ccccc3)sc12	> 100	> 100	> 100	–	> 100	> 100	> 100	> 100	> 100	–	–	–	–	–	–	–	–	–	–	–
CS(=O)(=O)c1nccc(-c2c(-c3cccc(OCc4ccc(F)cc4)c3)nc3sccn23)n1	> 100	> 100	5.54	–	> 100	> 100	> 100	> 100	> 100	–	–	> 56.6	19	2.28	–	11.7	57.2	8.15	21.7	5.45
COc1ccc(-c2cc3c4c(nc5ccccc5c4c2)CC(c2cc(OC)c(OC)c(OC)c2)O3)cc1 (stereo unspecified)	> 100	4.28	> 100	–	18.5	4.65	12.5	> 100	13.9	–	–	2.75	1.86	4.32	–	3.75	2.98	2.63	1.92	2.08
O=c1/c(=C/c2cccc3ccccc23)sc2nc3ccccc3n12	> 100	> 100	> 100	–	> 100	> 100	> 100	–	> 100	> 100	–	–	–	–	–	–	–	–	–	–
COc1ccc(CC(=O)c2cc(OC)c(OC)cc2C)cc1OC	> 100	> 100	> 100	> 100	> 100	–	> 100	–	> 100	> 100	–	–	–	–	–	–	–	–	–	–
CCOC(=O)C1NCCc2c1[nH]c1ccccc21 (stereo unspecified)	> 10	> 10	> 10	–	> 10	> 10	> 10	> 10	> 10	–	–	–	–	–	–	–	–	–	–	–
Nc1nc2ncn(CCO)c2c(=O)[nH]1	> 100	> 100	> 100	> 100	> 100	> 100	> 100	> 100	–	–	–	–	–	–	–	–	–	–	–	–
O=S(=O)(c1cccc(C(F)(F)F)c1)N1c2ccccc2-n2cccc2C1c1cccnc1 (stereo unspecified)	> 62.3	> 55	43.7	–	> 100	> 53.9	> 66.8	71.9	> 53.6	–	–	–	–	–	–	–	–	–	–	–
